Patent publication US8541002B2, “Vaccine for treatment and prevention of herpes simplex virus infection” (Agenus Inc., priority 2003, dated 2013)
Where no end group is shown, it is not given here.

Test: Turbidity assay for solubility of the peptides
Assay type: physicochemical
Details: solubility of the antigenic peptides in water or Dimethyl Sulfoxide (DMSO)
Procedure: A number of antigenic peptides of the invention were synthesized by chemical synthesis as described in Section 5.1.1.
A turbidity assay was used to assess the solubility of the peptides. Turbidity assays used either a Varian Cary double-beam spectrophotometer, or a Molecular Devices Spectromax absorbance plate reader (for high throughput experiments). The spectrophotometer assay read every 2 nm between 340 nm and 360 nm, and averaged the values. Samples were analyzed in duplicate using a quartz micro-cuvette that holds about 200 uL. The plate reader assay used a 96-well plate format that read every 4 nm between 340 nm and 360 nm and averaged those values. Samples in this assay were run in triplicate.

Row | Compound | Solubility
1 | CC(C)C[C@H](NC(=O)[C@H](CCCNC(=N)N)NC(=O)CNC(=O)[C@@H](NC(=O)[C@H](C)NC(=O)[C@H](C)NC(=O)[C@H](CS)NC(=O)[C@H](Cc1ccccc1)NC(=O)[C@@H](NC(=O)[C@H](CCCNC(=N)N)NC(=O)[C@H](CCCCN)NC(=O)[C@H](CC(N)=O)NC(=O)[C@H](Cc1ccccc1)NC(=O)CNC(=O)[C@H](C)NC(=O)[C@@H](NC(=O)[C@H](CCCNC(=N)N)NC(=O)[C@@H]1CCCN1C(=O)[C@@H](NC(=O)[C@H](Cc1c[nH]c2ccccc12)NC(=O)[C@@H]1CCCN1C(=O)[C@H](C)NC(=O)[C@@H](NC(=O)[C@@H]1CCCN1C(=O)[C@@H](N)CO)[C@@H](C)O)[C@@H](C)O)C(C)C)C(C)C)C(C)C)C(=O)N[C@@H](C)C(=O)N[C@@H](C)C(=O)N[C@H](C(=O)N[C@@H](Cc1c[nH]cn1)C(=O)N[C@@H](C)C(=O)N[C@@H](CCCNC(=N)N)C(=O)N[C@@H](CC(C)C)C(=O)N[C@@H](C)C(=O)N[C@@H](C)C(=O)N[C@H](C(=O)O)C(C)C)[C@@H](C)O [UL49-2] | water
2 | ARLRLEARLGHLVAAILEREQSLVAHALGYQLAFV [UL22-4] | water
3 | DEAFPIEYVLRLMNDWADVPCNPYLRVQNTGVSVL [UL34-1] | DMSO
4 | CSCC[C@H](NC(=O)[C@H](Cc1c[nH]c2ccccc12)NC(=O)[C@H](CO)NC(=O)[C@H](C)NC(=O)[C@H](Cc1c[nH]c2ccccc12)NC(=O)[C@H](Cc1c[nH]cn1)NC(=O)[C@H](Cc1ccc(O)cc1)NC(=O)[C@H](CC(C)C)NC(=O)[C@@H](NC(=O)[C@H](CO)NC(=O)[C@@H](NC(=O)[C@H](Cc1ccc(O)cc1)NC(=O)[C@H](C)NC(=O)[C@H](CC(C)C)NC(=O)[C@H](CC(C)C)NC(=O)[C@H](CCC(=O)O)NC(=O)[C@H](CO)NC(=O)[C@H](CC(C)C)NC(=O)[C@H](CCCNC(=N)N)NC(=O)[C@H](CC(C)C)NC(=O)[C@H](C)NC(=O)[C@@H](NC(=O)[C@H](CC(=O)O)NC(=O)[C@@H](NC(=O)[C@H](CO)NC(=O)[C@@H]1CCCN1C(=O)[C@H](CCCNC(=N)N)NC(=O)[C@H](CO)NC(=O)[C@@H]1CCCN1C(=O)[C@H](CC(=O)O)NC(=O)[C@H](C)N)[C@@H](C)O)[C@@H](C)O)C(C)C)C(C)C)C(=O)N[C@@H](CC(C)C)C(=O)N[C@@H](Cc1c[nH]c2ccccc12)C(=O)N[C@H](C(=O)N[C@@H](C)C(=O)O)[C@@H](C)O [UL46-2] | DMSO
5 | VAPACIIAAVLAYYVTWLARALLLYVNIKRDRLPL [UL20-2] | DMSO
6 | CSCC[C@H](NC(=O)[C@H](Cc1ccccc1)NC(=O)[C@H](C)NC(=O)CNC(=O)[C@@H](NC(=O)[C@H](Cc1ccccc1)NC(=O)[C@H](CCCNC(=N)N)NC(=O)[C@@H]1CCCN1C(=O)[C@H](CC(=O)O)NC(=O)[C@H](CCC(N)=O)NC(=O)[C@@H](NC(=O)[C@H](CO)NC(=O)[C@@H](NC(=O)CNC(=O)[C@@H](N)CCC(=O)O)C(C)C)[C@@H](C)O)C(C)C)C(=O)N[C@@H](C)C(=O)N[C@@H](C)C(=O)N[C@@H](CCCCN)C(=O)N[C@@H](C)C(=O)N[C@@H](C)C(=O)N[C@@H](Cc1c[nH]cn1)C(=O)N[C@@H](CC(C)C)C(=O)N[C@@H](CCC(=O)O)C(=O)N[C@@H](CC(C)C)C(=O)N[C@@H](CCC(=O)O)C(=O)N[C@@H](C)C(=O)N[C@@H](CCCNC(=N)N)C(=O)N[C@@H](CC(C)C)C(=O)N[C@@H](CCCCN)C(=O)N[C@@H](CO)C(=O)N[C@@H](CCCNC(=N)N)C(=O)N[C@@H](C)C(=O)N[C@@H](CCCNC(=N)N)C(=O)N[C@@H](CC(C)C)C(=O)N[C@@H](CCC(=O)O)C(=O)O [UL14-1] | water
7 | CC[C@H](C)[C@H](NC(=O)[C@H](CC(=O)O)NC(=O)[C@H](CCCCN)NC(=O)[C@@H](NC(=O)[C@H](CC(=O)O)NC(=O)[C@H](CO)NC(=O)[C@H](CC(C)C)NC(=O)[C@H](CCCNC(=N)N)NC(=O)[C@H](CCCNC(=N)N)NC(=O)[C@H](CCCNC(=N)N)NC(=O)[C@H](CO)NC(=O)[C@H](CS)NC(=O)[C@H](CC(C)C)NC(=O)[C@H](CC(=O)O)NC(=O)[C@H](CC(=O)O)NC(=O)[C@@H](N)CC(C)C)[C@@H](C)CC)C(=O)N[C@@H](C)C(=O)N[C@@H](CO)C(=O)N[C@@H](Cc1ccccc1)C(=O)N[C@H](C(=O)N[C@@H](CC(C)C)C(=O)N[C@H](C(=O)N[C@H](C(=O)N[C@@H](CC(C)C)C(=O)N[C@@H](C)C(=O)N[C@@H](CCCNC(=N)N)C(=O)N[C@@H](CC(C)C)C(=O)N[C@@H](C)C(=O)N[C@@H](CC(N)=O)C(=O)N[C@@H](CCCNC(=N)N)C(=O)N[C@H](C(=O)N[C@@H](CCC(=O)O)C(=O)N[C@@H](CCCNC(=N)N)C(=O)NCC(=O)N[C@H](C(=O)O)C(C)C)C(C)C)[C@@H](C)CC)C(C)C)C(C)C [UL54-2] | water
8 | CC[C@H](C)[C@H](NC(=O)[C@H](Cc1ccc(O)cc1)NC(=O)[C@H](C)NC(=O)[C@H](Cc1ccc(O)cc1)NC(=O)CNC(=O)[C@H](CC(C)C)NC(=O)[C@H](C)NC(=O)[C@H](CCCNC(=N)N)NC(=O)[C@H](CC(C)C)NC(=O)[C@@H](NC(=O)[C@H](CCCNC(=N)N)NC(=O)[C@@H](NC(=O)[C@H](CS)NC(=O)[C@H](Cc1ccccc1)NC(=O)[C@H](CC(C)C)NC(=O)[C@H](Cc1c[nH]cn1)NC(=O)[C@H](C)NC(=O)[C@H](CC(C)C)NC(=O)[C@H](CCCNC(=N)N)NC(=O)[C@H](CC(C)C)NC(=O)[C@H](C)NC(=O)[C@@H]1CCCN1C(=O)[C@H](CCCCN)NC(=O)[C@H](CO)NC(=O)[C@@H]1CCCN1C(=O)[C@H](C)NC(=O)CNC(=O)[C@H](CO)NC(=O)[C@@H]1CCCN1C(=O)[C@H](C)NC(=O)[C@H](C)N)[C@@H](C)CC)C(C)C)C(=O)N[C@@H](CC(N)=O)C(=O)N[C@@H](CO)C(=O)NCC(=O)N[C@@H](CCC(N)=O)C(=O)O [UL41-1] | water
9 | CSCC[C@H](NC(=O)[C@H](CC(C)C)NC(=O)[C@H](CC(N)=O)NC(=O)[C@H](CCC(=O)O)NC(=O)[C@H](CC(C)C)NC(=O)[C@H](CC(C)C)NC(=O)[C@@H](NC(=O)[C@@H]1CCCN1C(=O)[C@H](Cc1ccccc1)NC(=O)[C@H](CCCNC(=N)N)NC(=O)[C@H](CCCNC(=N)N)NC(=O)[C@@H](NC(=O)[C@@H](NC(=O)[C@H](CCC(=O)O)NC(=O)CNC(=O)[C@@H](N)CC(C)C)C(C)C)[C@@H](C)O)C(C)C)C(=O)N[C@@H](CCCNC(=N)N)C(=O)N[C@@H](C)C(=O)N[C@@H](CC(C)C)C(=O)N[C@@H](CCC(=O)O)C(=O)NCC(=O)N[C@H](C(=O)N[C@@H](C)C(=O)N1CCC[C@H]1C(=O)N[C@@H](CC(=O)O)C(=O)N[C@@H](C)C(=O)N[C@@H](Cc1ccccc1)C(=O)N[C@@H](Cc1ccccc1)C(=O)N[C@@H](Cc1c[nH]cn1)C(=O)N[C@H](C(=O)N[C@@H](C)C(=O)N[C@@H](Cc1ccc(O)cc1)C(=O)N[C@@H](C)C(=O)N[C@@H](CC(C)C)C(=O)N[C@@H](C)C(=O)O)[C@@H](C)O)[C@@H](C)O [UL17-2] | water
10 | CC(C)C[C@H](NC(=O)[C@H](C)NC(=O)[C@H](CCCNC(=N)N)NC(=O)[C@@H](NC(=O)[C@@H](NC(=O)[C@H](Cc1c[nH]cn1)NC(=O)CNC(=O)CNC(=O)[C@H](CC(C)C)NC(=O)[C@H](CO)NC(=O)[C@H](CC(C)C)NC(=O)[C@H](CO)NC(=O)[C@H](CCCNC(=N)N)NC(=O)[C@@H]1CCCN1C(=O)[C@H](C)NC(=O)[C@@H](NC(=O)[C@H](CCCNC(=N)N)NC(=O)[C@@H]1CCCN1C(=O)[C@H](CC(N)=O)NC(=O)CN)[C@@H](C)O)[C@@H](C)O)C(C)C)C(=O)N[C@@H](CO)C(=O)N1CCC[C@H]1C(=O)N[C@H](C(=O)N1CCC[C@H]1C(=O)N1CCC[C@H]1C(=O)N[C@@H](Cc1c[nH]c2ccccc12)C(=O)N1CCC[C@H]1C(=O)NCC(=O)N[C@H](C(=O)N[C@@H](CC(=O)O)C(=O)N[C@@H](CC(=O)O)C(=O)N[C@@H](CCC(=O)O)C(=O)N[C@@H](CC(=O)O)C(=O)N[C@@H](CC(=O)O)C(=O)N[C@@H](CC(=O)O)C(=O)O)[C@@H](C)O)[C@@H](C)O [RL02-1] | water
11 | CC(C)C[C@H](NC(=O)[C@@H]1CCCN1C(=O)[C@@H](NC(=O)[C@H](CO)NC(=O)[C@H](C)NC(=O)[C@H](CO)NC(=O)[C@H](CO)NC(=O)[C@H](CCCNC(=N)N)NC(=O)[C@@H](NC(=O)[C@H](CO)NC(=O)[C@@H](N)CC(=O)O)C(C)C)C(C)C)C(=O)N[C@@H](Cc1ccc(O)cc1)C(=O)N1CCC[C@H]1C(=O)N[C@@H](C)C(=O)N[C@@H](C)C(=O)N[C@@H](CO)C(=O)N1CCC[C@H]1C(=O)N[C@H](C(=O)N1CCC[C@H]1C(=O)N[C@@H](C)C(=O)N[C@@H](CCC(=O)O)C(=O)N[C@@H](C)C(=O)N[C@@H](Cc1ccc(O)cc1)C(=O)N[C@@H](Cc1ccc(O)cc1)C(=O)N[C@@H](CO)C(=O)N[C@@H](CCC(=O)O)C(=O)N[C@@H](CO)C(=O)N[C@@H](CCC(=O)O)C(=O)N[C@@H](CC(=O)O)C(=O)N[C@@H](CCC(=O)O)C(=O)N[C@@H](C)C(=O)N[C@@H](C)C(=O)N[C@@H](CC(N)=O)C(=O)N[C@@H](CC(=O)O)C(=O)N[C@@H](Cc1ccccc1)C(=O)O)C(C)C [US09-2] | water
12 | RTLAVRGDASLCQLLFGHPVDAVILRQATRRPRIT [UL16-2] | water
13 | PATLIPRAAAKHLAALTRVQAERSSGYWWVNGDGI [UL45-1] | water
14 | CC[C@H](C)[C@H](NC(=O)[C@@H](NC(=O)[C@@H]1CCCN1C(=O)[C@@H](N)CC(=O)O)[C@@H](C)CC)C(=O)NCC(=O)N[C@H](C(=O)N[C@@H](C)C(=O)N[C@@H](C)C(=O)N[C@@H](C)C(=O)N[C@H](C(=O)N[C@@H](CC(C)C)C(=O)N[C@@H](CCC(=O)O)C(=O)N[C@@H](CC(N)=O)C(=O)N[C@@H](CC(C)C)C(=O)N[C@@H](C)C(=O)N[C@H](C(=O)N[C@@H](CCCNC(=N)N)C(=O)N[C@@H](CC(C)C)C(=O)N[C@@H](CCCNC(=N)N)C(=O)N1CCC[C@H]1C(=O)N[C@@H](Cc1ccccc1)C(=O)N[C@@H](CC(C)C)C(=O)N[C@@H](CCC(N)=O)C(=O)N[C@@H](CS)C(=O)N[C@@H](Cc1ccc(O)cc1)C(=O)N[C@@H](CC(C)C)C(=O)N[C@@H](CCCCN)C(=O)N[C@@H](C)C(=O)N[C@@H](CCCNC(=N)N)C(=O)NCC(=O)N[C@@H](CC(C)C)C(=O)N[C@@H](CS)C(=O)NCC(=O)N[C@@H](CC(C)C)C(=O)N[C@@H](CC(=O)O)C(=O)O)[C@@H](C)O)C(C)C)[C@@H](C)O [UL54-1] | water
